Laboratory results as given in patent publication US11827628B2, “Compositions and methods for inhibition of the JAK pathway” (Rigel Pharmaceuticals, Inc., priority 2005, dated 2023).
Read-outs that look alike come from different tables or passages of the source. One block for each compound: values may come before it.

How the values were obtained:
[1] = test system: IL-4 stimulated expression of CD23 in human Ramos B cells (JAK-1 and JAK-3); experiment: Assay for Ramos B-Cell Line Stimulated with IL-4 (CD23 upregulation, FACS); type: cell-based; conditions: read-out: IC50, Example 41
In short: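 Compound effect on IL-4-driven JAK1/JAK3 signalling is gauged as CD23 surface expression, measured by FACS after 20-24 h of stimulation with IL-4 at 50 units/mL final. A 1 h compound pre-treatment at 37 °C precedes stimulation, and IC50 is derived from the results.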

Primary human T-cells = experiment: Primary Human T-Cell Proliferation Assay Stimulated with IL-2 (CellTiter-Glo); type: cell-based; conditions: read-out: IC50, Example 42
In short: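 Peripheral blood T-cells pre-activated with anti-CD3/anti-CD28 and IL-2 were washed free of IL-2, then cultured with compound plus IL-2 for 72 hours at 37° C, duplicate wells. Viability read as ATP by CellTiter-Glo luminescence; IC50 reported.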

[2] = Ramos B-cell line stimulated with IL-4, CD23 expression by FACS
[3] = primary human T-cell proliferation stimulated with IL-2
[4] = Ramos B cells stimulated with IL-4, CD23 expression by FACS
[5] = primary human T-cells stimulated with IL-2, proliferation
[6] = Homo sapiens, Ramos, Ramos B cells stimulated with IL-4, CD23 expression by FACS
[7] = Homo sapiens, T-cell, primary human T-cells stimulated with IL-2, proliferation
[8] = Homo sapiens, Ramos, Ramos B-cell line stimulated with IL-4, CD23 expression by FACS
[9] = Homo sapiens, T-cell, primary human T-cell proliferation stimulated with IL-2

IC50 [1, 2]: 270 nM
Compound: Cc1ccc(Nc2ncc(F)c(Nc3ccc(CNC(=O)C4CC4)cc3)n2)cc1S(N)(=O)=O [III-43, N2-(3-aminosulfonyl-4-methyl)phenyl-N4-(4-cyclopropylcarbonylaminomethyl)phenyl-5-fluoro-2,4-pyrimidinediamine]
IC50 (Primary human T-cells; [3]): 898 nM

IC50 [1, 2]: 204 nM
Compound: NC(=O)CCc1ccc(Nc2nc(Nc3cccc(S(N)(=O)=O)c3)ncc2F)cc1 [III-48, N4-[4-(2-Aminocarboxylethylene)phenyl]-N2-(3-aminosulfonylphenyl)-5-fluoro-2,4-pyrimidinediamine]
IC50 (Primary human T-cells; [3]): 218 nM

IC50 [1, 6]: 135 nM
Compound: Cc1ccc(Nc2ncc(F)c(Nc3cccc(S(=O)(=O)N(C)C)c3)n2)cc1S(N)(=O)=O [IV-10, N2-(3-Aminosulfonyl-4-methylphenyl)-5-fluoro-N4-[3-(N,N-dimethylaminosulfonyl)phenyl]-2,4-pyrimidinediamine]
IC50 (Primary human T-cells; [7]): 714 nM

IC50 [1, 6]: 549 nM
Compound: C#CCNS(=O)(=O)c1ccc(Nc2nc(Nc3ccc(C)c(S(N)(=O)=O)c3)ncc2F)cc1 [VI-76, N2-(3-Aminosulfonyl-4-methylphenyl)-5-fluoro-N4-[4-(prop-2-ynylaminosulfonyl)phenyl]-2,4-pyrimidinediamine]
IC50 (Primary human T-cells; [7]): 783 nM

IC50 [1, 8]: 211 nM
Compound: C=CC(=O)NCc1ccc(Nc2nc(Nc3ccc(C)c(S(N)(=O)=O)c3)ncc2F)cc1 [III-46, N4-(4-Acrylamidomethylphenyl)-N2-(3-aminosulfonyl-4-methylphenyl)-5-fluoro-2,4-pyrimidinediamine]
IC50 (Primary human T-cells; [9]): 1050 nM

IC50 [1, 4]: 198 nM
Compound: CCCN(Cc1ccc(Nc2nc(Nc3ccc(C)c(S(N)(=O)=O)c3)ncc2F)cc1)C(N)=O [III-127, N2-(3-aminosulfonyl-4-methyl)phenyl-N4-[4-(N-carbamoyl-N-propyl)aminomethyl]phenyl-5-fluoro-2,4-pyrimidinediamine]
IC50 (Primary human T-cells; [5]): 612 nM

The remaining lines, values behind:

Compound: Cc1cc(COc2ccc(Nc3nc(Nc4ccc(Cl)c(S(N)(=O)=O)c4)ncc3F)cc2)no1 [Compound I-220, N2-(3-Aminosulfonyl-4-chlorophenyl)-5-fluoro-N4-[4-(5-methylisoxazol-3-yl)methyleneoxyphenyl]-2,4-pyrimidinediamine]
IC50 [1, 2]: 121 nM
IC50 (Primary human T-cells; [3]): 1070 nM

Compound: N2-(3-Aminosulfonyl-4-methoxy-5-methylphenyl)-N4-(4-chloro-3-trifluoromethyl-phenyl)-5-fluoro-2,4-pyrimidinediamine [VI-40]
IC50 [1, 4]: 288 nM
IC50 (Primary human T-cells; [5]): 1240 nM

Compound: Cc1nccn1Cc1ccc(Nc2nc(Nc3ccc(S(N)(=O)=O)cc3)ncc2F)cc1 [III-92, N2-(4-Aminosulfonylphenyl)-5-fluoro-N4-[4-(2-methyl-1-imidazolylmethyl)phenyl]-2,4-pyrimidinediamine]
IC50 [1, 4]: 323 nM
IC50 (Primary human T-cells; [5]): 1900 nM

Compound: Cc1cc(Nc2nc(Nc3cccc(S(N)(=O)=O)c3)ncc2F)ccc1NC(=O)CC#N [Compound I-80, N2-(3-Aminosulfonylphenyl)-5-fluoroN4-[3-methyl-4-(N-cyanoacetyl)aminophneyl]-2,4-pyrimidinediamine]
IC50 [1, 2]: 365 nM
IC50 (Primary human T-cells; [3]): 470 nM

Compound: CNC(=O)COc1ccc(Nc2nc(Nc3ccc(C)c(S(N)(=O)=O)c3)ncc2F)cc1Cl [Compound I-148, N2-(3-Aminosulfonyl-4-methylphenyl)-N4-(3-chloro-4-methylaminocarbonylmethoxyphenyl)-5-fluoro-2,4-pyrimidinediamine]
IC50 [1, 8]: 61.2 nM
IC50 (Primary human T-cells; [9]): 240 nM

Compound: Cc1ccc(Nc2ncc(F)c(Nc3ccc(NC(=O)CC#N)cc3)n2)cc1S(N)(=O)=O [Compound I-79, N2-(3-Aminosulfonyl-4-methylphenyl)-N4-[4-(N-cyanoacetyl)aminophneyl]-5-fluoro-2,4-pyrimidinediamine]
IC50 [1, 2]: 461 nM
IC50 (Primary human T-cells; [3]): 1060 nM

Compound: CCC(=O)NS(=O)(=O)c1cc(Nc2ncc(F)c(Nc3ccc(OCC#N)cc3)n2)ccc1C [Compound I-30, N4-(4-Cyanomethyleneoxy)phenyl-5-fluoro-N2-(4-methyl-3-propionylaminosulfonyl)phenyl-2,4-pyrimidinediamine]
IC50 [1, 2]: 5430 nM
IC50 (Primary human T-cells; [3]): 3570 nM
